Read-outs that look alike come from different tables or passages of the source.
Target: T1, F508delCFTR (Homo sapiens, UniProt P13569, DEL508-508)
T1 construct: expressed in transfected cells; host or cells: CFBE41o- human lung-derived epithelial cells (CFBE4lo-F508delCFTR-HRP), doxycycline-inducible
Experiment: Cell Surface Expression-Horse Radish Peroxidase (CSE-HRP) Assay;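 for Maximum % activity (with co-corrector): co-corrector and positive control are both the same reference corrector at 2 µM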;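 for Maximum % activity (without co-corrector): percent of the 2 µM on-plate positive control corrector response above DMSO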
Type: cell-based
Conditions: for Emax / Maximum % activity (with co-corrector): maximum at any tested concentration, normalized to on-plate positive control; for Emax: read-out: Maximum % activity (without co-corrector)

[1] = test compound without co-corrector
[2] = test compound without co-corrector, read-out: EC50 (without co-corrector)
[3] = with co-corrector (2 μM of 3-[(2R,4R)-4-({[1-(2,2-difluoro-1,3-benzodioxol-5-yl)cyclopropyl]carbonyl}amino)-7-methoxy-3,4-dihydro-2H-chromen-2-yl]benzoic acid)
[4] = with co-corrector (2 μM of 3-[(2R,4R)-4-({[1-(2,2-difluoro-1,3-benzodioxol-5-yl)cyclopropyl]carbonyl}amino)-7-methoxy-3,4-dihydro-2H-chromen-2-yl]benzoic acid), read-out: EC50 (with co-corrector)
[5] = CSE-HRP, test compound without co-corrector, read-out: EC50 (without co-corrector)
[6] = CSE-HRP, with co-corrector (2 μM of 3-[(2R,4R)-4-({[1-(2,2-difluoro-1,3-benzodioxol-5-yl)cyclopropyl]carbonyl}amino)-7-methoxy-3,4-dihydro-2H-chromen-2-yl]benzoic acid), read-out: EC50 (with co-corrector)
[7] = CSE-HRP, with co-corrector (2 μM)

T1 sequence (P13569 with tags, fused parts or gaps DEL508-508): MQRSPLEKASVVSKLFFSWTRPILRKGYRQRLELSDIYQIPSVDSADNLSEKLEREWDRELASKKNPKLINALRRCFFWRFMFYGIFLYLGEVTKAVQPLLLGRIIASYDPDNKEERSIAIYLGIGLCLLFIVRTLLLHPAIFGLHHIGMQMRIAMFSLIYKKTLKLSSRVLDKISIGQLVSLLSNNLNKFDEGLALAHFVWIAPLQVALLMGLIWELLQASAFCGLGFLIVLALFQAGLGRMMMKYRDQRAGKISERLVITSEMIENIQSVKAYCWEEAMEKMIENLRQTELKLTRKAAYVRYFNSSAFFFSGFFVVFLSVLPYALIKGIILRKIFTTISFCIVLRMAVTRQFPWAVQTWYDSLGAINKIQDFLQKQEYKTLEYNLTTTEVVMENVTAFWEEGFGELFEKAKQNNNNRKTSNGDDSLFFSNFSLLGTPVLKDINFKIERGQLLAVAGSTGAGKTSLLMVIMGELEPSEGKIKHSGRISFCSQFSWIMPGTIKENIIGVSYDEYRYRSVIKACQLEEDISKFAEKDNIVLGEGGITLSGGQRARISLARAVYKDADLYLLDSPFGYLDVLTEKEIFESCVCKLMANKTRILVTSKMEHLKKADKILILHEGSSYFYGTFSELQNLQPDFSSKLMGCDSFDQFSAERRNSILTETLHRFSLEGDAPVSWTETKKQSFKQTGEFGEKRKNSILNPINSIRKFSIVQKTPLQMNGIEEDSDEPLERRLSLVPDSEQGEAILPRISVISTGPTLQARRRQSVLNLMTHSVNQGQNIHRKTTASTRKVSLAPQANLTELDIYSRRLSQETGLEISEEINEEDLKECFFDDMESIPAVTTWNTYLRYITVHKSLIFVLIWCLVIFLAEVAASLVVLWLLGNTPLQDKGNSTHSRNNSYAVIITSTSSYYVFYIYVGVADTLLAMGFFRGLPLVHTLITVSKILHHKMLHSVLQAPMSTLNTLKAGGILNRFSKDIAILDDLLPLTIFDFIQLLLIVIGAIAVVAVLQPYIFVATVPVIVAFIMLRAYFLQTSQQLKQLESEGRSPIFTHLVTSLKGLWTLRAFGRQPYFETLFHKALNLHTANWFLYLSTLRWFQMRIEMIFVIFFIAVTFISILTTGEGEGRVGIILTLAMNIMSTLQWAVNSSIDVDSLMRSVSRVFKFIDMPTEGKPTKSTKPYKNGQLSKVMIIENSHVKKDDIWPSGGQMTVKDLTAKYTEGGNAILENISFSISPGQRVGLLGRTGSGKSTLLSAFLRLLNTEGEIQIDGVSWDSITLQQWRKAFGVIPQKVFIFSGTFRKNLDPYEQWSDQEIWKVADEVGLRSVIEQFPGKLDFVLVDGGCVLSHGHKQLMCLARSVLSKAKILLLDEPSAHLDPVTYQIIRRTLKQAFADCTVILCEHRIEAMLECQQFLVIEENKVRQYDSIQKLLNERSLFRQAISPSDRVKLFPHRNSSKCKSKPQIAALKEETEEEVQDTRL

Emax [1] [%]	EC50 [2] [nM]	Maximum % activity (with co-corrector) [3]	EC50 [4] [nM]	Maximum % activity (with co-corrector) (with co-corrector (2 μM))	Emax (without co-corrector) [%]	EC50 [5] [nM]	EC50 [6] [nM]	Maximum % activity (with co-corrector) [7]	Emax (CSE-HRP, without co-corrector) [%]	Structure (SMILES)
> 200	1000 to 10000	+++ (≥350)	< 1000	–	–	–	–	–	–	COc1ccc(C(C)(C)C)cc1CN[C@H]1[C@H](C(C)(C)C)[C@@H](C(=O)O)N(C(=O)C(C)Oc2ccccc2F)[C@H]1c1ccccc1 (stereo partly shown) [II-324]
–	> 10000	–	1000 to 10000	++ (≥150 and <350)	< 100	–	–	–	–	COc1ccc(C(F)(F)F)cc1CN[C@@H]1[C@@H](C(C)(C)C)[C@H](C(=O)O)N(C(=O)C(C)(C)OC)[C@@H]1c1ccccc1 (racemic) [Example I-41]
–	1000 to 10000	–	< 1000	+++ (≥350)	> 200	–	–	–	–	COc1ncc(C2CCC2)cc1CN[C@H]1[C@H](C(C)(C)C)[C@@H](C(=O)O)N(C(=O)OC(C)C)[C@H]1c1ccccc1C1CC1 [Example 93, (2S,3S,4S,5S)-3-tert-butyl-4-{[(5-cyclobutyl-2-methoxypyridin-3-yl)methyl]amino}-5-(2-cyclopropylphenyl)-1-{[(propan-2-yl)oxy]carbonyl}pyrrolidine-2-carboxylic acid]
–	1000 to 10000	–	1000 to 10000	+++ (≥350)	< 100	–	–	–	–	CC(C)(C)c1ccc(CN[C@H]2[C@H](C(C)(C)C)[C@@H](C(=O)O)N(C(=O)[C@@H]3CCCC(F)(F)C3)[C@H]2c2ccccc2)c(Cl)n1 [Example I-247]
> 200	1000 to 10000	+++ (≥350)	1000 to 10000	–	–	–	–	–	–	COc1ccc(OC(F)(F)F)cc1CN[C@H]1[C@H](C(C)(C)C)[C@@H](C(=O)O)N(C(=O)OC(C)C)[C@H]1c1cccnc1N(C)C [II-552]
–	1000 to 10000	–	1000 to 10000	+++ (≥350)	100 to 200	–	–	–	–	COc1ncc(C2CCC2)cc1CN[C@H]1[C@H](C(C)(C)C)[C@@H](C(=O)O)N(C(=O)[C@@H]2CCCO2)[C@H]1c1ccccc1Br [Example 106, (2S,3S,4S,5S)-5-(2-bromophenyl)-3-tert-butyl-4-{[(5-cyclobutyl-2-methoxypyridin-3-yl)methyl]amino}-1-[(2S)-oxolane-2-carbonyl]pyrrolidine-2-carboxylic acid]
–	–	–	–	–	–	1000 to 10000	1000 to 10000	++ (≥150 and <350)	< 100	CC(C)(C)[C@H]1[C@H](NCc2cc(Cl)cc(Cl)c2)[C@H](c2ccccc2)N(C(=O)C2CCCCC2)[C@@H]1C(=O)O [II-111]
–	< 1000	–	< 1000	+++ (≥350)	100 to 200	–	–	–	–	COc1ncc(CC2CCCCC2)cc1CN[C@H]1[C@H](C(C)(C)C)[C@@H](C(=O)O)N(C(=O)C2CCCCC2)[C@H]1c1ccccc1 [Example I-71]
< 100	1000 to 10000	++ (≥150 and <350)	1000 to 10000	–	–	–	–	–	–	COc1ccc(C(F)(F)F)cc1CN[C@@H]1[C@@H](C(C)(C)C)[C@@H](C(=O)O)N(C(=O)C2CCCCC2)[C@H]1c1ccccc1 [II-413]
–	1000 to 10000	–	< 1000	+++ (≥350)	> 200	–	–	–	–	COc1ncc(C2CCC2)cc1CN[C@H]1[C@H](C(C)(C)C)[C@@H](C(=O)O)N(C(=O)[C@H]2CCCCO2)[C@H]1c1ccccc1C(C)C [Example 72, (2S,3S,4S,5S)-3-tert-butyl-4-{[(5-cyclobutyl-2-methoxypyridin-3-yl)methyl]amino}-1-[(2R)-oxane-2-carbonyl]-5-[2-(propan-2-yl)phenyl]pyrrolidine-2-carboxylic acid]
–	1000 to 10000	–	1000 to 10000	+++ (≥350)	100 to 200	–	–	–	–	COc1ccc(C(C)(C)C)cc1CN[C@H]1[C@H](C(C)(C)C)[C@@H](C(=O)O)N(C(=O)[C@@H]2OCC[C@@H]2c2ccccc2)[C@H]1c1ccccc1 (relative stereo) [Example I-178]
< 100	> 10000	++ (≥150 and <350)	1000 to 10000	–	–	–	–	–	–	COc1cc(C(F)(F)F)cc(N(C)[C@@H]2[C@@H](C(C)(C)C)[C@H](C(=O)O)N(C(=O)C3CCCCC3)[C@@H]2c2ccccc2)n1 (racemic) [III-17]
< 100	> 10000	–	1000 to 10000	++ (≥150 and <350)	–	–	–	–	–	COc1ccc(C(F)(F)F)cc1CN[C@H]1[C@H](C(C)(C)C)[C@@H](C(=O)O)N(C(=O)[C@](OC)(c2ccccc2)C(F)(F)F)[C@H]1c1ccccc1 [III-100]
–	–	–	–	–	–	1000 to 10000	1000 to 10000	+++ (≥350)	> 200	COc1ccc(Cl)cc1CN[C@H]1[C@H](C(C)(C)C)[C@@H](C(=O)O)N(C(=O)[C@H](OC)c2ccccc2)[C@H]1c1ccccc1N(C)C [II-63]
–	1000 to 10000	–	1000 to 10000	+++ (≥350)	< 100	–	–	–	–	COc1cc(C(F)(F)F)ccc1CN[C@H]1[C@H](C(C)(C)C)[C@@H](C(=O)O)N(C(=O)C2CCCCC2)[C@H]1c1ccccc1OC(F)F [Example I-43]
–	–	–	–	–	–	1000 to 10000	< 1000	+++ (≥350)	> 200	COc1ncc(C(F)(F)F)cc1CN[C@H]1[C@H](C(C)(C)C)[C@@H](C(=O)O)N(C(=O)[C@H](OC)c2ccccc2)[C@H]1c1ccccc1 [II-83]
–	1000 to 10000	–	1000 to 10000	+++ (≥350)	100 to 200	–	–	–	–	COc1nc(C(C)(C)C)ccc1CN[C@H]1[C@H](C23CC(C2)C3)[C@@H](C(=O)O)N(C(=O)OC(C)C)[C@H]1c1ccccc1 [Example 70, (2S,3S,4S,5S)-3-(bicyclo[1.1.1]pentan-1-yl)-4-{[(6-tert-butyl-2-methoxypyridin-3-yl)methyl]amino}-5-phenyl-1-{[(propan-2-yl)oxy]carbonyl}pyrrolidine-2-carboxylic acid]
–	–	–	–	–	–	1000 to 10000	1000 to 10000	+++ (≥350)	100 to 200	CCOc1ccc(Br)cc1CN[C@H]1[C@H](C(C)(C)C)[C@@H](C(=O)O)N(C(=O)C2CCCCC2)[C@H]1c1ccccc1 [II-126]
–	–	–	–	–	–	1000 to 10000	1000 to 10000	+++ (≥350)	> 200	COc1ccc(C(C)(C)C)cc1CN[C@H]1[C@H](C(C)(C)C)[C@@H](C(=O)O)N(C(=O)[C@H]2C[C@H](CCC#N)C[C@H]2C)[C@H]1c1ccccc1 [II-173]
> 200	1000 to 10000	+++ (≥350)	< 1000	–	–	–	–	–	–	COc1ccc(C2(C(F)(F)F)CC2)cc1CN[C@H]1[C@H](C(C)(C)C)[C@@H](C(=O)O)N(C(=O)C2CCCCC2)[C@H]1c1ccccc1F [II-353]
< 100	1000 to 10000	++ (≥150 and <350)	1000 to 10000	–	–	–	–	–	–	CC(C)N(C(=O)N1[C@H](c2ccccc2)[C@H](NCc2ccccc2OC(F)F)[C@@H](C)[C@@H]1C(=O)O)C(C)C (racemic) [III-34]
< 100	1000 to 10000	+++ (≥350)	1000 to 10000	–	–	–	–	–	–	COc1ccc(C(F)(F)F)cc1CN[C@H]1[C@H](C(C)(C)C)[C@@H](C(=O)O)N(C(=O)C2(C)CCCOC2)[C@H]1c1ccccc1N(C)C (mixture of isomers) [III-77]
–	1000 to 10000	–	1000 to 10000	+++ (≥350)	> 200	–	–	–	–	COc1ccc(C(C)(C)C)cc1CN[C@H]1[C@H](C(C)(C)OC)[C@@H](C(=O)O)N(C(=O)C2CCCCC2)[C@H]1c1cccnc1OC [Example 40, (2S,3S,4S,5S)-4-{[(5-tert-butyl-2-methoxyphenyl)methyl]amino}-1-(cyclohexanecarbonyl)-3-(2-methoxypropan-2-yl)-5-(2-methoxypyridin-3-yl)pyrrolidine-2-carboxylic acid]
–	–	–	–	–	–	1000 to 10000	1000 to 10000	++ (≥150 and <350)	< 100	COc1cc(C)ccc1CN[C@H]1[C@H](C(C)(C)C)[C@@H](C(=O)O)N(C(=O)[C@@H]2CCCCO2)[C@H]1c1cccnc1OC [II-123]
–	–	–	–	–	–	1000 to 10000	1000 to 10000	+++ (≥350)	100 to 200	COc1cc2c(cc1CN[C@H]1[C@H](C(C)(C)C)[C@@H](C(=O)O)N(C(=O)OC(C)C)[C@H]1c1cccnc1N(C)C)C(C)(C)CCC2(C)C [Example I-251]
–	–	–	–	–	–	1000 to 10000	1000 to 10000	+++ (≥350)	> 200	COc1ncc(C2CCC2)cc1CN[C@H]1[C@H](C(C)(C)C)[C@@H](C(=O)O)N(C(=O)[C@H]2CCCCO2)[C@H]1c1ccccc1C [Example I-266]
–	–	–	–	–	–	< 1000	1000 to 10000	+++ (≥350)	< 100	COc1cc(CN[C@H]2[C@H](C(C)(C)C)[C@@H](C(=O)O)N(C(=O)C3CCCCC3)[C@H]2c2ccccc2)c(Br)cc1F [II-114]
–	–	–	–	–	–	1000 to 10000	1000 to 10000	+++ (≥350)	> 200	COc1ncc(C2CCC2)cc1CN[C@H]1[C@H](C(C)(C)C)[C@@H](C(=O)O)N(C(=O)[C@@H]2CCCO2)[C@H]1c1ccccc1C [Example I-265]

— US20180099931A1 (AbbVie S.à.r.l., priority 2016, published 2018)
